Experimental data reported in PubChem BioAssay AID248 (DTP/NCI, 2004).
Values joined by “and” are separate entries in the source; they are usually repeats but may differ in a detail not shown here. Identical values can stand only once. Toxic doses and inconclusive results are not listed. Rule as the data show it: active = T/C of 150% or more; inactive = T/C below 125%.

Test system: L1210 leukemia ip in BDF1 mice, survival T/C
Assay: NCI In Vivo Anticancer Drug Screen. Data for tumor model L1210 Leukemia (intraperitoneal) in B6D2F1 (BDF1) mice
Conditions: endpoint: mean survival time, higher = longer survival
Outline: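 Mice bearing the transplanted tumor received compound or vehicle. Survival of the treated group was divided by that of the vehicle-treated control group to give the ratio.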

[1] = dose: 100.0 mg/kg/injection, schedule: Q04DX003 (ip), vehicle: Klucel (hydroxypropylcellulose) (HPC)
[2] = dose: 200.0 mg/kg/injection, schedule: Q01DX001 (ip), vehicle: saline
[3] = dose: 200.0 mg/kg/injection, schedule: Q04DX003 (ip), vehicle: Klucel (hydroxypropylcellulose) (HPC)
[4] = dose: 400.0 mg/kg/injection, schedule: Q04DX003 (ip), vehicle: Klucel (hydroxypropylcellulose) (HPC)
[5] = dose: 100.0 mg/kg/injection, schedule: Q01DX009 (ip), vehicle: saline with Tween-80
[6] = dose: 100.0 mg/kg/injection, schedule: Q04DX002 (ip), vehicle: saline with Tween-80
[7] = dose: 200.0 mg/kg/injection, schedule: Q01DX009 (ip), vehicle: saline with Tween-80
[8] = dose: 200.0 mg/kg/injection, schedule: Q04DX002 (ip), vehicle: saline with Tween-80
[9] = dose: 400.0 mg/kg/injection, schedule: Q01DX009 (ip), vehicle: saline with Tween-80
[10] = dose: 400.0 mg/kg/injection, schedule: Q04DX002 (ip), vehicle: saline with Tween-80
[11] = dose: 100.0 mg/kg/injection, schedule: Q01DX009 (ip), vehicle: Klucel (hydroxypropylcellulose) (HPC)
[12] = dose: 200.0 mg/kg/injection, schedule: Q01DX009 (ip), vehicle: Klucel (hydroxypropylcellulose) (HPC)
[13] = dose: 400.0 mg/kg/injection, schedule: Q01DX009 (ip), vehicle: Klucel (hydroxypropylcellulose) (HPC)

Measured: T/C

O=[N+]([O-])c1cccc(CS(=O)(=O)c2ccccc2)c1-c1c(CS(=O)(=O)c2ccccc2)cccc1[N+](=O)[O-]
inactive: dose: 100.0 mg/kg/injection, schedule: Q04DX003 (ip), vehicle: saline sonified 101 % of control | dose: 200.0 mg/kg/injection, schedule: Q04DX003 (ip), vehicle: saline sonified 95 % of control | dose: 400.0 mg/kg/injection, schedule: Q04DX003 (ip), vehicle: saline sonified 94 % of control

CCC(=O)c1ccc(OC(C)=O)cc1
inactive: dose: 222.0 mg/kg/injection, schedule: Q01DX Z (ip), vehicle: carboxymethylcellulose (CMC) 100 % of control | dose: 333.0 mg/kg/injection, schedule: Q01DX Z (ip), vehicle: carboxymethylcellulose (CMC) 118 % of control | dose: 500.0 mg/kg/injection, schedule: Q01DX Z (ip), vehicle: carboxymethylcellulose (CMC) 108 % of control

O=C(O)/C=C\C(=O)Nc1ccc(Cc2ccc(NC(=O)/C=C\C(=O)O)cc2)cc1
inactive: dose: 100.0 mg/kg/injection, schedule: Q01DX001 (ip), vehicle: saline 115 % of control | [1] 95 % of control | [2] 103 % of control | [3] 100 % of control | dose: 400.0 mg/kg/injection, schedule: Q01DX001 (ip), vehicle: saline 103 % of control | [4] 97 % of control

CCCCCCCCCCCCCCCCCCN1CCSCC1
inactive: [5] 96 % of control and 108 % of control | [6] 93 % of control and 103 % of control | dose: 100.0 mg/kg/injection, schedule: Q04DX003 (ip), vehicle: saline with Tween-80 104 % of control | [7] 100 % of control and 103 % of control | [8] 94 % of control and 91 % of control | dose: 200.0 mg/kg/injection, schedule: Q04DX003 (ip), vehicle: saline with Tween-80 104 % of control | [9] 103 % of control and 110 % of control | [10] 98 % of control | dose: 400.0 mg/kg/injection, schedule: Q04DX003 (ip), vehicle: saline with Tween-80 106 % of control

CCCCCOC(=O)C1OC1(CC)c1ccccc1 (stereo not given)
inactive: dose: 100.0 mg/kg/injection, schedule: Q04DX002 (ip), vehicle: saline 97 % of control | dose: 200.0 mg/kg/injection, schedule: Q04DX002 (ip), vehicle: saline 101 % of control | dose: 400.0 mg/kg/injection, schedule: Q04DX002 (ip), vehicle: saline 120 % of control

O=C(Nc1ccccc1[N+](=O)[O-])c1ccccc1
inactive: [5] 111 % of control | [7] 106 % of control | [9] 106 % of control

C[CH2][Sn](=[S])[S][Sn](=[S])[CH2]C
inactive: [6] 102 % of control | [8] 94 % of control | [10] 97 % of control

COC1(c2ccccc2)CN(Cc2ccccc2)CCO1 (stereo not given)
inactive: [11] 95 % of control | [12] 98 % of control

BrCc1cccc(C[P+](c2ccccc2)(c2ccccc2)c2ccccc2)c1
inactive: dose: 5.0 mg/kg/injection, schedule: Q01DX001 (ip), vehicle: saline 112 % of control | dose: 10.0 mg/kg/injection, schedule: Q01DX001 (ip), vehicle: saline 114 % of control | dose: 20.0 mg/kg/injection, schedule: Q01DX001 (ip), vehicle: saline 114 % of control | dose: 50.0 mg/kg/injection, schedule: Q01DX001 (ip), vehicle: saline 110 % of control

CNS(=O)(=O)c1cc(C)ccc1C
inactive: [11] 94 % of control | [12] 95 % of control | [13] 100 % of control

Cc1ccc(S(=O)(=O)Nc2c(N)nc(N)nc2-c2ccccc2)cc1
inactive: dose: 80.0 mg/kg/injection, schedule: Q01DX001 (ip), vehicle: Klucel (hydroxypropylcellulose) (HPC) 96 % of control | dose: 160.0 mg/kg/injection, schedule: Q01DX001 (ip), vehicle: Klucel (hydroxypropylcellulose) (HPC) 94 % of control | dose: 320.0 mg/kg/injection, schedule: Q01DX001 (ip), vehicle: Klucel (hydroxypropylcellulose) (HPC) 103 % of control

O=C(C=Nc1ccc([N+](=O)[O-])cc1)c1c2ccccc2cc2ccccc12
inactive: dose: 100.0 mg/kg/injection, schedule: Q01DX001 (ip), vehicle: Klucel (hydroxypropylcellulose) (HPC) 107 % of control | dose: 200.0 mg/kg/injection, schedule: Q01DX001 (ip), vehicle: Klucel (hydroxypropylcellulose) (HPC) 102 % of control | dose: 400.0 mg/kg/injection, schedule: Q01DX001 (ip), vehicle: Klucel (hydroxypropylcellulose) (HPC) 106 % of control

CCCCCCCCC(O)CCCCC (stereo not given)
inactive: [11] 100 % of control | [1] 106 % of control | [12] 98 % of control | [3] 103 % of control | [13] 94 % of control | [4] 109 % of control

ClCCC(c1ccccc1)N1CCCCC1 (stereo not given)
inactive: dose: 44.0 mg/kg/injection, schedule: Q01DX001 (ip), vehicle: saline 97 % of control and 106 % of control | dose: 66.0 mg/kg/injection, schedule: Q01DX001 (ip), vehicle: saline 96 % of control and 97 % of control | dose: 150.0 mg/kg/injection, schedule: Q01DX001 (ip), vehicle: saline 97 % of control and 92 % of control | [2] 93 % of control

O=C1CCCNc2ccccc21
inactive: [5] 98 % of control | [1] 93 % of control | [7] 110 % of control | [3] 106 % of control | [9] 93 % of control | [4] 98 % of control

O=C(O)C1CC(c2ccc(Cl)cc2)OC1=O (stereo not given)
inactive: dose: 100.0 mg/kg/injection, schedule: Q04DX003 (ip), vehicle: saline 101 % of control | dose: 200.0 mg/kg/injection, schedule: Q04DX003 (ip), vehicle: saline 104 % of control | dose: 400.0 mg/kg/injection, schedule: Q04DX003 (ip), vehicle: saline 101 % of control

O=C(NC1CCCCC1)Oc1ccc2ccccc2c1
inactive: dose: 100.0 mg/kg/injection, schedule: Q04DX002 (ip), vehicle: Klucel (hydroxypropylcellulose) (HPC) 102 % of control | dose: 200.0 mg/kg/injection, schedule: Q04DX002 (ip), vehicle: Klucel (hydroxypropylcellulose) (HPC) 100 % of control | dose: 400.0 mg/kg/injection, schedule: Q04DX002 (ip), vehicle: Klucel (hydroxypropylcellulose) (HPC) 107 % of control

COc1ccc(-c2cc(=O)c3c(O)cc(O)c(-c4cc(-c5cc(=O)c6c(O)cc(OC)cc6o5)ccc4OC)c3o2)cc1
inactive: dose: 55.0 mg/kg/injection, schedule: Q01DX Z (ip), vehicle: methylcellulose (MC) 98 % of control | dose: 83.0 mg/kg/injection, schedule: Q01DX Z (ip), vehicle: methylcellulose (MC) 92 % of control | dose: 125.0 mg/kg/injection, schedule: Q01DX Z (ip), vehicle: methylcellulose (MC) 93 % of control

O=C(Nc1cc2c(cc1Br)OCO2)C(Cl)Cl
inactive: [5] 95 % of control | [7] 120 % of control | [9] 92 % of control

CCOP1(=O)NC(=O)C=C(C)N1 (stereo not given)
inactive: dose: 60.0 mg/kg/injection, schedule: Q04DX002 (ip), vehicle: sodium bicarbonate 102 % of control | dose: 120.0 mg/kg/injection, schedule: Q04DX002 (ip), vehicle: sodium bicarbonate 97 % of control
